{"source": "patent US6552000B2", "about": "“Anticonvulsant derivatives useful in treating autism” (Ortho-McNeil Pharmaceutical, Inc., priority 1999, dated 2003)", "key": {"partial onset seizures": {"test_system": "partial onset seizures", "assay": "placebo controlled, add on trials in partial onset seizures", "format": "in vivo", "conditions": "adults and children with partial onset seizures", "excerpt": "There is also known enhancement of GABA activity in the brain along with reduced glutamate receptor activity. Accordingly, compounds of formula I are useful in the treatment of autism."}, "[1]": {"test_system": "simple and complex partial seizures and secondarily generalized seizures", "conditions": "clinical trials of human epilepsy; adjunctive therapy or monotherapy; cited from earlier work"}, "seizures": {"test_system": "seizures", "conditions": "several rodent models of epilepsy; cited from earlier work"}, "kindled epilepsy": {"test_system": "kindled epilepsy", "conditions": "animal model of kindled epilepsy; cited from earlier work"}}, "data": [{"compound": "CC1(C)O[C@@H]2[C@@H](CO[C@@]3(COS(N)(=O)=O)OC(C)(C)O[C@@H]23)O1", "note": "[topiramate, 2,3:4,5-bis-O-(1-methylethylidene)-β-D-fructopyranose sulfamate]", "values": [{"measurement": "reduction of seizure rate versus placebo", "setting": "partial onset seizures", "value": "statistically significant reduction of seizure rate"}, {"measurement": "efficacy in treating simple and complex partial seizures and secondarily generalized seizures", "setting": "[1]", "value": "effective"}, {"measurement": "block of seizures", "setting": "seizures", "value": "effectively block seizures"}, {"measurement": "block of seizures", "setting": "kindled epilepsy", "value": "effectively block seizures"}]}]}
